Measured values as given in ChEMBL document CHEMBL1142166, “Inhibition of antiassociation activity of translation initiation factor 3 by paromomycin” (2007).
Active and inactive are the calls of the source. No cut-off for these calls is given here.

Tests used:
Escherichia coli [1] = assay: Association of ribosome subunits into 70S ribosome of Escherichia coli MRE600 assessed upto 20 uM in the presence of 1 mM Mg2+; type: functional
[2] = target: T1, Translation initiation factor IF-3 (Escherichia coli K-12) (UniProt P0A707); assay: Inhibition of Escherichia coli XL1-Blue IF3 antiassociation activity at 0.1 uM in the presence of 8.2 mM Mg2+
T1 sequence (whole entry): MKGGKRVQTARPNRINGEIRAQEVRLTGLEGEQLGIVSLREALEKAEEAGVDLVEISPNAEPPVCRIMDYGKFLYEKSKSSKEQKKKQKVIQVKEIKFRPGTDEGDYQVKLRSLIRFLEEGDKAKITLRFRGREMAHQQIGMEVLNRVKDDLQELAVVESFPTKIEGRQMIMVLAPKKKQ

[3] = target: T1, Translation initiation factor IF-3 (Escherichia coli K-12); assay: Inhibition of Escherichia coli XL1-Blue IF3 binding to 30S subunit at 100 uM in presence of 8.2 mm Mg2+
Escherichia coli [4] = assay: Association of ribosome subunits into 70S ribosome of Escherichia coli MRE600 in presence of 4 mM Mg2+; type: functional
Escherichia coli [5] = assay: Association of ribosome subunits into 70S ribosome of Escherichia coli MRE600 at 0.1 mM in presence of 4 mM Mg2+; type: functional
Escherichia coli [6] = assay: Association of ribosome subunits into 70S ribosome of Escherichia coli MRE600 in presence of 6 mM Mg2+; type: functional
Escherichia coli [7] = assay: Association of ribosome subunits into 70S ribosome of Escherichia coli MRE600 assessed above 20 uM in the presence of 1 mM Mg2+; type: functional, organism-based

For NC[C@@H]1O[C@H](O[C@H]2[C@@H](O)[C@H](O[C@@H]3[C@@H](O)[C@H](N)C[C@H](N)[C@H]3O[C@H]3O[C@H](CO)[C@@H](O)[C@H](O)[C@H]3N)O[C@@H]2CO)[C@H](N)[C@@H](O)[C@@H]1O [PAROMOMYCIN], the Activity (Escherichia coli [1]) was 50%, the Activity [2] was “Active” and the Activity [3] was “inactive”. It also gave an Activity (Escherichia coli [4]) of 40%, an Activity (Escherichia coli [5]) of 70% and an Activity (Escherichia coli [6]) of 55%. The Activity (Escherichia coli [7]) was “inactive”.
